From publication PMC11855827, “High-Throughput Screening of Five Compound Libraries for Anthelmintic Activity and Toxicity Leads to the Discovery of Two Flavonoid Compounds” (International Journal of Molecular Sciences, 2025)
Where two headings read alike, the source gives them in different places.

Columns and labels:
[1] = tested on: C. elegans; details: for Percentage of motility inhibition 0 h / Percentage of motility inhibition 24 h: Table S2, C. elegans SS assay, averages of 4 data points
[2] = tested on: C. elegans; assay: C. elegans motility dose-response (DR) assay; design: species or system Caenorhabditis elegans
[3] = tested on: H. contortus susceptible strain; assay: Larval migration inhibition test (LMIT); design: species or system Haemonchus contortus; details: Haemonchus contortus, 24 h, L3, 100 μM, NE = Not Effective at 100 μM, control ivermectin 8.75 µg/mL
Description: (§1) Eggs and third instar larvae (L3) of H. contortus from a field strain and a resistant strain of T. circumcincta were used in the current trials. These parasitic forms were obtained from fresh feces of Merino and Churra sheep experimentally infected at the experimental farm of the Instituto de Ganadería de Montaña (IGM, CSIC, Gruyeros, León, Spain) and purified according to previously described methods. Briefly, eggs were taken from fresh feces, washed, centrifuged and floated with a saturated sodium chloride solution, then concentrated, counted and used in the assays. L3 were obtained by culturing feces at 25 °C for 13 d. L3 larvae were […] in 0.5% sodium hypochlorite solution for 10 min at room temperature and washed to avoid excess salt. After washing, they were concentrated and counted for use.
(§2) The viability of H. contortus larvae was assessed by the larval migration inhibition test (LMIT) according to previously described methods. Briefly, 700 µL aliquots containing 500–600 L3 were prepared for each compound. […] After a 24 h incubation at 28 °C, the compound was removed by three washes, leaving a final volume of 1400 µL. After the washes, three 400 µL aliquots were taken from each tube and transferred to a 96-well plate with a MultiScreen mesh filter. The plates were incubated for a further 24 h at 28 °C to allow the motile L3 to pass through the 20 µm mesh for counting. Then, the number of larvae present in each well was counted to determine percentage of larval migration for each compound: % Larval migration=number of larvae migrating in compound wells/number of larvae migrating in negative control×100
(§3) For the larvae, ivermectin at 8.75 µg/mL and DMSO 0.5% (v/v) were used as controls and at least 12 replicates were performed. […] EC50 were determined by plotting the percentage of viability of the L1 against the concentration of each compound, using the nonlinear fit analysis provided by the SigmaPlot® 10.1.

[4] = tested on: T. circumcincta resistant strain; assay: Larval migration inhibition test (LMIT); design: species or system Teladorsagia circumcincta; details: Teladorsagia circumcincta, 24 h, read-out: T. circumcincta LMIT (%)
Description: as §1, §2, §3

[5] = tested on: C. elegans; assay: microbe, parasite or virus in culture; details: Caenorhabditis elegans
[6] = tested on: H. contortus susceptible strain; assay: Egg hatch inhibition (EHI), ovicidal effect; design: species or system Haemonchus contortus; details: Haemonchus contortus; for inhibition at 100 µM: susceptible strain, NE = Not Effective at 100 μM, control thiabendazole 0.1 µg/mL
[7] = tested on: T. circumcincta resistant strain; assay: Egg hatch inhibition (EHI), ovicidal effect; design: species or system Teladorsagia circumcincta; details: Teladorsagia circumcincta
[8] = read-out: EC50 (μM) at 24 h, C. elegans motility, DR assay
[9] = 0 h, read-out: Inhibition (%) 110 μM (0 h)
[10] = 24 h, read-out: Inhibition (%) 110 μM (24 h)
[11] = Caenorhabditis elegans, read-out: EC50 (μM) at 24 h, C. elegans motility, DR assay
[12] = 0 h, read-out: Inhibition (%) 110 μM (0 h), C. elegans L4 motility, 110 μM, 0 h, mean ± SD of four experiments
[13] = 24 h, read-out: Inhibition (%) 110 μM (24 h), C. elegans L4 motility, 110 μM, 24 h, mean ± SD of four experiments
[14] = 24 h, read-out: Percentage of motility inhibition 24 h, Table S2, C. elegans SS assay, 110 μM, 24 h, averages of 4 data points
[15] = Caenorhabditis elegans, 24 h, read-out: EC50 (μM) at 24 h, C. elegans motility, DR assay, 24 h
[16] = 0 h, read-out: Percentage of motility inhibition 0 h, Table S2, C. elegans SS assay, 110 μM, 0 h, averages of 4 data points

CN[C@H]1C[C@@H](N)[C@H](O)[C@@H](O[C@@H]2O[C@H](CO)[C@H](O)[C@@H]3OC4(O[C@H]23)O[C@H]([C@@H](N)CO)[C@H](O)[C@H](O)[C@H]4O)[C@@H]1O (some centres unmarked) [Hygromycin B, reference compound]
Inhibition (%) 110 μM (0 h) [1]: 67 ± 28% | Inhibition (%) 110 μM (24 h) [1]: 89 ± 5% | EC50 [2, 8]: > 60 µM

C[C@@H]1CC[C@@]2(OC1)O[C@H]1C[C@H]3[C@@H]4CC=C5C[C@@H](O[C@@H]6O[C@H](CO)[C@@H](O[C@@H]7O[C@@H](C)[C@H](O)[C@@H](O)[C@H]7O)[C@H](O)[C@H]6O[C@@H]6O[C@@H](C)[C@H](O)[C@@H](O)[C@H]6O)CC[C@]5(C)[C@H]4CC[C@]3(C)[C@H]1[C@@H]2C [Dioscin]
inhibition at 100 µM [3]: 0% | inhibition at 100 µM [4]: 0% | inhibition at 110 µM [5, 9]: 12 ± 1% | inhibition at 110 µM [5, 10]: 79 ± 2% | EC50 [2, 11]: 37.8 ± 1.3 µM

N=C(N/N=C/c1ccc(Cl)cc1)N/N=C/c1ccc(Cl)cc1 [Robenidine, reference compound]
inhibition at 100 µM [3]: 3.1 ± 6.9% | inhibition at 100 µM [6]: 59.7 ± 0.7% | inhibition at 110 µM [5, 12]: 93 ± 5% | inhibition at 110 µM [5, 13]: 81 ± 20% | inhibition at 110 µM [5, 14]: 80% | EC50 [2, 15]: 32.3 ± 2.8 µM

CC[C@@H](C(=O)[C@@H](C)[C@@H](O)[C@H](C)[C@@H]1O[C@@H]([C@@H](CC)C(=O)O)CC[C@@H]1C)[C@H]1O[C@]2(C=C[C@@H](O)[C@]3(CC[C@@](C)([C@H]4CC[C@](O)(CC)[C@H](C)O4)O3)O2)[C@H](C)C[C@@H]1C [Salinomycin, reference compound]
inhibition at 100 µM [3]: 0% | inhibition at 100 µM [6]: 2.8 ± 5.1% | inhibition at 110 µM [5, 9]: 81 ± 9% | inhibition at 110 µM [5, 10]: 94 ± 1% | inhibition at 110 µM [5, 14]: 93% | EC50 [2, 11]: 55.3 ± 1.4 µM

Cc1cc(O)cc(C)c1Cl [Chloroxylenol, reference compound]
inhibition at 110 µM [5, 12]: 100% | inhibition at 110 µM [5, 16]: 100% | inhibition at 110 µM [5, 13]: 100% | inhibition at 110 µM [5, 14]: 100% | EC50 [2, 15]: > 60 µM

Spiramycin [reference compound]
Inhibition (%) 110 μM (0 h) ([1]; C. elegans L4 motility, 110 μM, 0 h, mean ± SD of four experiments): 43 ± 42% | Inhibition (%) 110 μM (24 h) ([1]; C. elegans L4 motility, 110 μM, 24 h, mean ± SD of four experiments): 81 ± 9% | Percentage of motility inhibition 0 h ([1]; 110 μM, 0 h): 42% | Percentage of motility inhibition 24 h ([1]; 110 μM, 24 h): 80% | EC50 [2, 8]: > 60 µM

Nc1ccc(S(=O)(=O)Nc2cnc3ccccc3n2)cc1 [Sulfaquinoxaline, reference compound]
inhibition at 110 µM [5, 12]: 87 ± 1% | inhibition at 110 µM [5, 13]: 67 ± 6% | EC50 [2, 15]: > 60 µM

O=[N+]([O-])c1ccc(O)c2ncccc12 [Nitroxoline, reference compound]
inhibition at 110 µM [5, 12]: 52 ± 32% | inhibition at 110 µM [5, 13]: 88 ± 2% | EC50 [2, 15]: > 60 µM

c1ccc2[nH]c(-c3cscn3)nc2c1 [Thiabendazole, reference compound]
EC50 ([6]; egg hatching, susceptible H. contortus, nine replicates, read-out: Ovicidal Effect EC50 (μM) H. c): 0.28 ± 0.01 µM | inhibition at 100 µM [6]: 100% | EC50 ([7]; egg hatching, resistant T. circumcincta, nine replicates, read-out: Ovicidal Effect EC50 (μM) T. c): 1.53 ± 0.06 µM | inhibition at 100 µM ([7]; resistant strain, 100 μM, NE = Not Effective at 100 μM, control thiabendazole 0.1 µg/mL): 100%

CC1(C)CCC[C@](C)([C@H]2CC[C@]3(C)[C@@H]2[C@H](O)C[C@@H]2[C@@]4(C)CC[C@H](O)C(C)(C)[C@@H]4[C@@H](O)C[C@]23C)O1 [Panaxatriol]
Percentage of motility inhibition 24 h ([1]; 110 μM, 24 h): 11% | inhibition at 110 µM [5, 14]: 15%

CCc1c(Cl)c(O)c(Cl)c(O)c1C(=O)O[C@H]1[C@H](O)[C@H](OC)[C@H](OC/C2=C\C=C\C[C@H](O)/C(C)=C/[C@H](CC)[C@@H](O[C@@H]3OC(C)(C)[C@@H](OC(=O)C(C)C)[C@H](O)[C@@H]3O)/C(C)=C/C(C)=C/C[C@@H]([C@@H](C)O)OC2=O)O[C@@H]1C [Fidaxomicin, reference compound]
inhibition at 110 µM [5, 12]: 82 ± 7% | inhibition at 110 µM [5, 13]: 89 ± 1% | inhibition at 110 µM [5, 14]: 88% | EC50 [2, 15]: > 60 µM

C[C@H]1[C@H](OC(=O)CCC(=O)O)O[C@@H]2O[C@@]3(C)CC[C@H]4[C@H](C)CC[C@@H]1[C@@]24OO3 [Artesunate]
Percentage of motility inhibition 0 h ([1]; 110 μM, 0 h): 21% | Percentage of motility inhibition 24 h ([1]; 110 μM, 24 h): 15% | inhibition at 110 µM [5, 16]: 12% | inhibition at 110 µM [5, 14]: 30%
